The values that follow come from ChEMBL document CHEMBL3804812, “Design, Syntheses, and Anti-TB Activity of 1,3-Benzothiazinone Azide and Click Chemistry Products Inspired by BTZ043” (ACS Med Chem Lett, 2016).

The assay concerns Mycobacterium tuberculosis. Nature of the assay: Antibacterial activity against Mycobacterium tuberculosis NTB1 harboring cys287ser mutation in DprE1 assessed as reduction in colony formation. The class given is functional, organism-based.

Calls of active or inactive are those of the source. No cut-off for these calls is given here.

As for `C[C@H]1COC2(CCN(c3nc(=O)c4cc(C(F)(F)F)cc(N=[N+]=[N-])c4s3)CC2)O1`, the result was Active.
